Assay type in all cases: in vivo, humans
For assay [1], the system named is patients with Parkinson's disease who were suffering from dementia. The assay can be described thus: Mini-Mental State Examination (MMSE) in randomized, placebo-controlled, double-blind crossover study. As to conditions: 5 mg or 10 mg donepezil, 10 weeks, start of treatment to week 10.
Method: (§1) A randomized, placebo-controlled, double-blind crossover study was conducted with fourteen patients with Parkinson's disease (13 men, 1 woman; mean age 78 (SD 3.6) years; mean duration of illness 11.4 (SD 4.9) years) who had developed cognitive impairments (mean Mini-Mental State Examination (MMSE) score 20.7 (SD 3.3)) 8.6 (SD 5.8) years after the onset of parkinsonism. […] At weeks 6 and 10 the patients completed a battery of cognitive tests. Cognitive impairments were measured using the MMSE and the CIBIC, a 7-point scale of the clinician's interview-based impression of change based upon information scored independently of the MMSE. Parkinsonism was assessed using the Unified Parkinson's Disease Rating Scale (UPDRS).
For assay [2] the test system is unchanged. The assay is described as follows: CIBIC+ (clinician's interview-based impression of change) in randomized, placebo-controlled, double-blind crossover study.
Method: as §1
The subject of assay [3] is patients with Parkinson's disease and mild or moderate dementia. The assay can be described thus: Overall efficacy / cognitive function in crossover study.
Method: as §1

Turning to `COc1cc2c(cc1OC)C(=O)C(CC1CCN(Cc3ccccc3)CC1)C2` (stereo not drawn) [donepezil, 1-benzyl-4-((5,6-dimethoxy-1-indanon)-2-yl)methylpiperidine], in assay [1], the “mean MMSE score difference from baseline to week 10” value came out at 2.1 points. Further, the “mean CIBIC+ score at week 10” value in assay [2] (5 mg or 10 mg donepezil, week 10, 7-point scale) came to 3.3. In addition, in assay [2] (10 weeks of treatment), the “CIBIC+ response rate (improvement, CIBIC+ score of 3 or lower)” value turned out to be 42% and the “number of patients with improvement (CIBIC+ score of 3 or lower)” value was found to be 5 patients. The “all efficacy measures versus placebo” value in assay [3] (in vivo) is “numerical benefit”. In assay [3] (treated for 10 weeks), the cognitive function result is “improvement”.

The values are drawn from US20040180931A1, “Methods for treating Parkinson's disease” (priority 2000, published 2004).
